Assay results from the supplement of paper PMC11208160.

Assay: recombinant barcode read abundance after kanamycin selection (control-corrected) (log10(CPM+1)); higher = more efficient recombination; sequences stand for … in AGTGCAGAGAAAATCGGCCAGTTTTCTCTGCCTGCAGTCCGCATGCCGT…AGATTTATGCAGCGGACTGCCTTTCTCCCAAAGTGATAAACCGGACAGTATCATGGACCGGTTTTCCCGGTAATCCGTATTTGCAAGGTTGGTTTCACT; site = the 11-nt target
Method in brief: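 Recombination efficiency was calculated from barcode counts at recombinant junctions, normalized to counts per million, averaged and corrected by the control. Each value is given as log10(CPM+1). The constructs were Gibson-cloned oligos (promoter, target, barcode, J23119-driven first 104 bridge RNA bases) in a vector with the remaining 73 bp and a T7-inducible recombinase, co-electroporated into E. coli with a donor plasmid and plated in duplicate on chloramphenicol/ampicillin LB agar (control) or chloramphenicol/ampicillin/kanamycin with 0.1 mM IPTG.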
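Also: IS621 recombinase and bridge RNA in Escherichia coli cells.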

| Sequence | recombinant barcode read abundance (log10) |
| --- | --- |
| ATTAAGTCTTGGGTTCTAACCTGTTGCCT (site AATAAGTCTAG) | 0.0662 |
| ATTAAGTCTTGGGTTCTAACCTGTTGCCT (site ACTAAGTCTAG) | 0.08 |
| ATTAAGTCTTGGGTTCTAACCTGTTGCCT (site AGTAAGTCTAG) | 0.0808 |
| ATTAAGTCTTGGGTTCTAACCTGTTGCCT (site ATTAAGTCTAG) | 0.359 |
| ATTAGGACTTGGGTTCTAACCTGTTGCTG (site ATTAGGACTCA) | 2.12 |
| ATTAGGACTTGGGTTCTAACCTGTTGCTG (site ATTAGGACTCT) | 1.56 |
| ATTCAGACTTGGGTTCTAACCTGTTGCGG (site ATCCAGGCTCC) | 0.113 |
| ATTCAGACTTGGGTTCTAACCTGTTGCGG (site ATTCAGACTCC) | 2.33 |
| ATTCCATCTTGGGTTCTAACCTGTTGCCT (site ATACCATCTAG) | 0.57 |
| ATTCCATCTTGGGTTCTAACCTGTTGCCT (site ATCCCATCTAG) | 0.281 |
| ATTCCATCTTGGGTTCTAACCTGTTGCCT (site ATGCCATCTAG) | 0.12 |
| ATTCCATCTTGGGTTCTAACCTGTTGCCT (site ATTCCATCTAG) | 0.538 |
| ATTGCTACTTGGGTTCTAACCTGTTGCCA (site ATTGCTACTTG) | 0.122 |
| ATTGCTACTTGGGTTCTAACCTGTTGCCA (site GAACAGCCTAC) | 0.143 |
| ATTGGCTCTTGGGTTCTAACCTGTTGCCT (site ATTGGATCTAG) | 0.339 |
| ATTGGCTCTTGGGTTCTAACCTGTTGCCT (site ATTGGCTCTAG) | 0.684 |
| ATTGGCTCTTGGGTTCTAACCTGTTGCCT (site ATTGGGTCTAG) | 0.0639 |
| ATTGGCTCTTGGGTTCTAACCTGTTGCCT (site ATTGGTTCTAG) | 0.0735 |
| ATTGGTCCTTGGGTTCTAACCTGTTGCAT (site ATTGCTCCTAG) | 0.364 |
| ATTGGTCCTTGGGTTCTAACCTGTTGCAT (site ATTGGTCCTAT) | 1.92 |
| ATTTCGACTTGGGTTCTAACCTGTTGCGG (site ATTTCGACTCC) | 0.713 |
| ATTTCGACTTGGGTTCTAACCTGTTGCGG (site GCAGGTGCTAA) | 0.021 |

| Sequence | recombinant barcode read abundance (log10) |
| --- | --- |
| ATTTCTACTTGGGTTCTAACCTGTTGCGA (site ATTTCTACTTC) | 0.194 |
| ATTTCTACTTGGGTTCTAACCTGTTGCGA (site GTTTCTACTTA) | 0.102 |
| ATTTGGACTTGGGTTCTAACCTGTTGCCT (site ATTTGAACTAG) | 0.173 |
| ATTTGGACTTGGGTTCTAACCTGTTGCCT (site ATTTGCACTAG) | 0.0773 |
| ATTTGGACTTGGGTTCTAACCTGTTGCCT (site ATTTGGACTAG) | 0.111 |
| ATTTGGACTTGGGTTCTAACCTGTTGCCT (site ATTTGTACTAG) | 0.0943 |
| CAAAAGGCTTGGGTTCTAACCTGTTGCCT (site ATCGTACCTTA) | 0.469 |
| CAAAAGGCTTGGGTTCTAACCTGTTGCCT (site CAAAAGGCTAG) | 0.0565 |
| CAAACAACTTGGGTTCTAACCTGTTGCCT (site CAAACAACTAG) | 0.235 |
| CAAACAACTTGGGTTCTAACCTGTTGCCT (site CAAACACCTAG) | 0.188 |
| CAAACAACTTGGGTTCTAACCTGTTGCCT (site CAAACAGCTAG) | 0.101 |
| CAAACAACTTGGGTTCTAACCTGTTGCCT (site CAAACATCTAG) | 0.133 |
| CAAACTACTTGGGTTCTAACCTGTTGCTA (site CAAACTACTGT) | 0.011 |
| CAAACTACTTGGGTTCTAACCTGTTGCTA (site CAAACTACTTA) | 0.386 |
| CAAACTCCTTGGGTTCTAACCTGTTGCAT (site CAAACTCCTAA) | 0.116 |
| CAAACTCCTTGGGTTCTAACCTGTTGCAT (site CAAACTCCTAC) | 0.0268 |
| CAAACTCCTTGGGTTCTAACCTGTTGCAT (site CAAACTCCTAG) | 0.0257 |
| CAAACTCCTTGGGTTCTAACCTGTTGCAT (site CAAACTCCTAT) | 0.713 |
| CAAACTCCTTGGGTTCTAACCTGTTGCCT (site CAAACTCCTAA) | 0.137 |
| CAAACTCCTTGGGTTCTAACCTGTTGCCT (site CAAACTCCTAC) | 0.0217 |
| CAAACTCCTTGGGTTCTAACCTGTTGCCT (site CAAACTCCTAG) | 0.238 |
